Broadly, the log P is a log measure of how a compound divides between an organic and an aqueous phase.

Experimental findings from patent US9758485B2, “Compounds for controlling arthropods” (priority 2013, dated 2017) are described below.

The nature of data set [1]: logP determination by HPLC on a reversed-phase column (C18), EEC Directive 79/831 Annex V.A8. It counts as physicochemical. The conditions noted are these: for log P: HPLC-MS, reversed-phase column (C18); for logP^a): HPLC-MS method a), Table I-T3.
For data set [2], the system named is Ctenocephalides felis. Briefly: Ctenocephalides felis - in vitro contact tests with adult cat fleas. In kind it is in vivo. The conditions noted are these: application rate 5 μg/cm^2 (=500 g/ha), after 48 h (dead or moribund). A digest of the protocol: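 Acetone solution coated on test-tube inner walls (900 ppm gives 5 μg/cm^2). After drying, 5-10 adult cat fleas added and kept horizontal at room temperature and ambient humidity. At 48 h fleas knocked down; motionless or uncoordinated ones counted dead/moribund, giving % efficacy.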

The subject of the next data set is Amblyomma hebraeum. The data set can be described thus: Amblyomma hebraeum test (tick nymphs, immersion). It counts as in vivo. Particulars: application rate 100 ppm; tick nymphs immersed for one minute; kill after 42 days. The method, then:
(§1) Solvent: dimethyl sulphoxide
To produce an appropriate active ingredient formulation, 10 mg of active ingredient are mixed with 0.5 ml of dimethyl sulphoxide, and the concentrate is diluted with water to the desired concentration.
Tick nymphs (Amblyomma hebraeum) are placed into perforated plastic beakers and immersed in the desired concentration for one minute. The ticks are transferred on filter paper into a Petri dish and stored in a climate-controlled cabinet.
After 42 days, the kill in % is determined. 100% means that all of the ticks have been killed; 0% means that none of the ticks have been killed.

Another data set deals with Boophilus microplus. The data set can be described thus: Boophilus microplus - injection test. It counts as in vivo. The conditions noted are these: application rate 20 μg/animal; injected into engorged adult female ticks; laying of fertile eggs, after 7 days. A digest of the protocol: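 Engorged adult female ticks, five per dose, were injected in the abdomen with 1 μl of active ingredient diluted in dimethyl sulphoxide. Animals were kept in dishes under climate control, and egg fertility was assessed after 7 days.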

Data set [3] concerns Boophilus microplus Parkhurst strain, SP-resistant. Briefly: Boophilus microplus - dip test. In kind it is in vivo. The conditions noted are these: application rate 100 ppm; dip of engorged adult female ticks; laying of fertile eggs, after 7 days. On the procedure:
Boophilus microplus—Dip Test
Test animals: cattle ticks (Boophilus microplus) Parkhurst strain, SP-resistant
as §1
10 mg of active ingredient are dissolved in 0.5 ml of dimethyl sulphoxide. For the purpose of producing a suitable formulation, the active ingredient solution is diluted with water to the concentration desired in each case.
This active ingredient formulation is pipetted into tubes. 8-10 adult engorged female cattle ticks (Boophilus microplus) are transferred into a further tube with holes. The tube is immersed into the active ingredient formulation, and all the ticks are completely wetted. After the liquid has run out, the ticks are transferred on filter discs into plastic dishes and stored in a climate-controlled room.
Efficacy is assessed after 7 days by laying of fertile eggs. Eggs which are not visibly fertile are stored in a climate-controlled cabinet until the larvae hatch after about 42 days. An efficacy of 100% means that none of the ticks has laid any fertile eggs; 0% means that all the eggs are fertile.

The test system of data set [4] is Ctenocephalides felis. The data set can be described thus: Ctenocephalides felis - oral test. It counts as in vivo. Particulars: application rate 100 ppm in citrated cattle blood; adult fleas; kill after 2 days. The procedure, abridged:
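About 20 unfed adult cat fleas fed through a parafilm membrane on citrated cattle blood containing compound, dosed from a DMSO stock. Kill in % scored after 2 days; 100% means all fleas dead.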

Another data set relates to Lucilia cuprina. The data set can be described thus: Lucilia cuprina test. It counts as in vivo. Particulars: application rate 100 ppm; L1 larvae in minced horsemeat; kill after 2 days. A digest of the protocol: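 About 20 L1 larvae placed on minced horsemeat treated with compound, formulated in DMSO and diluted with water to test concentration. Kill in % scored after 2 days (100% = all larvae dead, 0% = none).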

The next data set deals with Musca domestica. Briefly: Musca domestica test. The conditions noted are these: application rate 100 ppm; adult houseflies; kill after 2 days. It counts as in vivo. A digest of the protocol:
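Compound in DMSO, diluted with water, applied to a sugar-solution sponge; vessels hold 10 adult houseflies. Percent mortality scored after 2 days.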

A further data set has as its system Rhipicephalus sanguineus. Briefly: Rhipicephalus sanguineus - in vitro contact tests with adult brown dog ticks. In kind it is in vivo. The method, then: Rhipicephalus sanguineus—In Vitro Contact Tests with Adult Brown Dog Ticks
For the coating of the test tubes, 9 mg of active ingredient are first dissolved in 1 ml of acetone p.a. and then diluted to the desired concentration with acetone p.a. 250 μl of the solution are distributed homogeneously on the inner walls and base of a 25 ml test tube by turning and rocking on an orbital shaker (rocking rotation at 30 rpm for 2 h). With 900 ppm active ingredient solution and internal surface 44.7 cm^2, given homogeneous distribution, an area-based dose of 5 μg/cm^2 is achieved.
After the solvent has evaporated off, the tubes are populated with 5-10 adult dog ticks (Rhipicephalus sanguineus), sealed with a perforated plastic lid and incubated in a horizontal position in the dark at room temperature and ambient humidity. After 48 h, efficacy is determined. To this end, the ticks are knocked to the floor of the tube and incubated on a hotplate at 45-50° C. for not more than 5 min. Ticks which remain motionless on the floor or move in such an uncoordinated manner that they are unable to deliberately avoid the heat by climbing upwards are considered to be dead or moribund.
An efficacy of 100% means that all the ticks were dead or moribund. 0% efficacy means that none of the ticks had been harmed.

Setting [5] is: application rate 5 μg/cm^2, after 48 h (dead or moribund).

In the case of `Cc1cc(C(F)(C(F)(F)F)C(F)(F)F)cc(C)c1-n1cc(-c2cnc(Cl)c(C(=O)N(C)C3(C#N)CC3)c2)cn1` [I-T3-103], the “log P” value in data set [1] came out at 4.3. In addition, the efficacy with Ctenocephalides felis [2] is recorded as 100%; with Amblyomma hebraeum it was 90%; in the data set with Boophilus microplus, 100%; in [3], 100%; in the data set with Ctenocephalides felis [4], 100%; in the data set with Lucilia cuprina it was 100%. This compound came in with an efficacy in the data set with Musca domestica of 100%.

On to `CN(C(=O)c1cc(-c2cnn(-c3c(Cl)cc(C(F)(C(F)(F)F)C(F)(F)F)cc3Cl)c2)cnc1Cl)C1(C#N)CC1` [I-T3-102], for which the “log P” value in data set [1] is 4.3. Also, the efficacy in the data set on Ctenocephalides felis [2] is given as 100%; in the data set with Amblyomma hebraeum it was 90%; in the data set on Boophilus microplus, 100%; in data set [3], 100%; in the data set with Ctenocephalides felis [4] it was 100%; with Lucilia cuprina, 100%. The compound also gave an efficacy with Musca domestica of 100%.

As to `Cc1cc(C(F)(C(F)(F)F)C(F)(F)F)cc(Br)c1-n1cc(-c2ccc(Cl)c(C(=O)NC3CC3)c2)cn1` [I-T3-86], the “logP^a)” value in data set [1] is recorded as 4.5. The efficacy (in the data set on Ctenocephalides felis [2]; in the data set with Amblyomma hebraeum; in the data set with Boophilus microplus; in data set [3]; with Ctenocephalides felis [4]; with Lucilia cuprina) was 100% throughout. The compound further yielded an efficacy in the data set on Musca domestica of 100%.

Consider `Cc1ncc(-c2cnn(-c3c(Cl)cc(C(F)(C(F)(F)F)C(F)(F)F)cc3C(F)(F)F)c2)cc1C(=O)N(C)C1(C#N)CC1` [I-T3-131], for which the “log P” value in [1] is on record as 3.9. In addition, the efficacy (with Ctenocephalides felis [2]; in the data set with Amblyomma hebraeum; in the data set with Boophilus microplus; in data set [3]; in the data set on Ctenocephalides felis [4]; in the data set with Lucilia cuprina) was 100% in each case. The compound also gave an efficacy in the data set on Musca domestica of 100%.

For `CCc1cc(C(F)(C(F)(F)F)C(F)(F)F)ccc1-n1cc(-c2cnc(Cl)c(C(=O)NC3CC3)c2)cn1` [I-T3-104], the “log P” value in data set [1] amounted to 4.2. The efficacy (in the data set on Rhipicephalus sanguineus (setting [5]); in the data set on Amblyomma hebraeum; with Boophilus microplus; in [3]; with Ctenocephalides felis [4]; in the data set with Lucilia cuprina) was 100% in each case. In the data set on Musca domestica, this compound returned an efficacy of 100%.

Consider `CN(C(=O)c1cc(-c2cnn(-c3c(Cl)cc(C(F)(C(F)(F)F)C(F)(F)F)cc3C(F)(F)F)c2)cnc1Cl)C1(C#N)CC1` [I-T3-116], for which, in data set [1], the “log P” value was 4.3. In addition, the efficacy (with Ctenocephalides felis [2]; in the data set with Amblyomma hebraeum; with Boophilus microplus; in data set [3]; with Ctenocephalides felis [4]; in the data set with Lucilia cuprina) was 100% in each case. Also, the efficacy in the data set with Musca domestica amounted to 100%.

Take `N#CC1(NC(=O)c2cc(-c3cnn(-c4c(Cl)cc(C(F)(C(F)(F)F)C(F)(F)F)cc4C(F)(F)F)c3)ccc2Cl)CC1` [I-T3-57]: in data set [1], the “logP^a)” value was 4.3. In addition, the efficacy (in the data set on Ctenocephalides felis [2]; in the data set with Amblyomma hebraeum; in the data set with Boophilus microplus; in [3]; in the data set with Ctenocephalides felis [4]; with Lucilia cuprina) was 100% in each case. Also, the efficacy in the data set on Musca domestica came to 100%.

As for `Cc1cc(C(F)(C(F)(F)F)C(F)(F)F)cc(C(F)(F)F)c1-n1cc(-c2cnc(Cl)c(C(=O)N(C)C3CC3)c2)cn1` [I-T3-107], the “log P” value in [1] turned out to be 4.5. In addition, the efficacy (in the data set on Ctenocephalides felis [2]; with Amblyomma hebraeum; in the data set on Boophilus microplus; in data set [3]; with Ctenocephalides felis [4]; in the data set on Lucilia cuprina) was 100% throughout. This compound gave an efficacy with Musca domestica of 100%.

`Cc1cc(C(F)(C(F)(F)F)C(F)(F)F)cc(C(F)(F)F)c1-n1cc(-c2cnc(Cl)c(C(=O)N(C)C3(C#N)CC3)c2)cn1` [I-T3-111]: in [1], the “log P” value was 4.4. Also, the efficacy with Ctenocephalides felis [2] was found to be 100%; with Amblyomma hebraeum it was 80%; in the data set on Boophilus microplus, 100%; in data set [3], 98%; in the data set on Ctenocephalides felis [4], 100%; in the data set with Lucilia cuprina, 100%. The efficacy with Musca domestica was found to be 100%.

Take `Cc1ncc(-c2cnn(-c3c(Cl)cc(C(F)(C(F)(F)F)C(F)(F)F)cc3C(F)(F)F)c2)cc1C(=O)NC1CC1` [I-T3-124]: the “log P” value in data set [1] amounted to 3.5. For the same compound, the efficacy (in the data set with Ctenocephalides felis [2]; with Amblyomma hebraeum; in the data set on Boophilus microplus; in data set [3]; in the data set on Ctenocephalides felis [4]; in the data set with Lucilia cuprina) was 100% in each case. In addition, in the data set with Musca domestica, the efficacy amounted to 100%.

With `CCc1cc(C(F)(F)C(F)(F)F)cc(C)c1-n1cc(-c2ccc(Cl)c(C(=O)NC3(C#N)CC3)c2)cn1` [I-T3-80], in data set [1], the “logP^a)” value was determined as 4.2. The efficacy in the data set on Rhipicephalus sanguineus (setting [5]) amounted to 80%; in the data set on Ctenocephalides felis [2] it was 100%; with Boophilus microplus, 100%; in data set [3], 80%; with Ctenocephalides felis [4], 100%; with Lucilia cuprina, 100%. The efficacy with Musca domestica stood at 100%.

As to `Cc1cc(C(F)(C(F)(F)F)C(F)(F)F)cc(C)c1-n1cc(-c2cnc(Cl)c(C(=O)N(C)C3CC3)c2)cn1` [I-T3-101], the “log P” value in [1] came out at 4.4. The efficacy is reported as 100% in the data set on Ctenocephalides felis [2]; 95% with Amblyomma hebraeum; 100% with Boophilus microplus; 100% in [3]; 100% with Ctenocephalides felis [4]; 100% with Lucilia cuprina. In addition, the efficacy in the data set on Musca domestica was found to be 100%.

In the case of `CCc1cc(C(F)(C(F)(F)F)C(F)(F)F)ccc1-n1cc(-c2cnc(Cl)c(C(=O)NC3(C#N)CC3)c2)cn1` [I-T3-105], the “log P” value in [1] worked out at 4.1. The efficacy with Rhipicephalus sanguineus (application rate 0.2 μg/cm^2, after 48 h (dead or moribund)) is on record as 100%; in the data set with Amblyomma hebraeum, 85%; in the data set with Boophilus microplus, 100%; in the data set with Ctenocephalides felis [4] it was 100%; in the data set with Lucilia cuprina, 100%; in the data set with Musca domestica, 80%.

For `N#CC1(NC(=O)c2cc(-c3cnn(-c4c(Cl)cc(C(F)(F)F)cc4Cl)c3)cnc2Cl)CC1` [I-T3-95], the “log P” value in data set [1] is 3.1. The efficacy (with Ctenocephalides felis [2]; in the data set on Amblyomma hebraeum; with Boophilus microplus; in [3]; in the data set on Ctenocephalides felis [4]) was 100% throughout.

Take `CN(C(=O)c1cc(-c2cnn(-c3c(Cl)cc(C(F)(C(F)(F)F)C(F)(F)F)cc3Cl)c2)cnc1Cl)C1CC1` [I-T3-100]: the “log P” value in [1] was 4.4. Moreover, the efficacy (with Ctenocephalides felis [2]; with Amblyomma hebraeum; in the data set with Boophilus microplus; in data set [3]; in the data set with Ctenocephalides felis [4]; in the data set on Lucilia cuprina) was 100% throughout. Besides, in the data set on Musca domestica, the efficacy is given as 100%.
